# According to PubChem BioAssay AID562 (University of Pittsburgh Molecular Library Screening Center, 2006):
# pIC50: −log10 of the molar value. Active and inactive are the calls of the source. The rule behind the calls is not given here.
# Target: Dual specificity protein phosphatase 1 (Homo sapiens) (UniProt P28562)
# Assay: DUSP1 inhibition in catalase presence – biochemical, catalase added, active/probe assessment, dose response (AID 562)
# Conditions: recombinant MKP-1 phosphatase, fluorescence, with catalase
# Sequence of Dual specificity protein phosphatase 1 (Homo sapiens) (P28562 whole entry, looked up): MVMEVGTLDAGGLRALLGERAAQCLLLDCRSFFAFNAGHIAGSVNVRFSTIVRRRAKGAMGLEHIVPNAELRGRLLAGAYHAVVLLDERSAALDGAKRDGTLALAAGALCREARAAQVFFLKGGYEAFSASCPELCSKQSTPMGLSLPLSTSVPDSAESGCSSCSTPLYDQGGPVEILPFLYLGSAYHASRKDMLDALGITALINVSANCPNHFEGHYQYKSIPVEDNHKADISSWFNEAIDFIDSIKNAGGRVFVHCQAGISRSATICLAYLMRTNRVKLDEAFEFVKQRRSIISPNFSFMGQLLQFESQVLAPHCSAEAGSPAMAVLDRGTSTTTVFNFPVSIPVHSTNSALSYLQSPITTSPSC
SMILES,IC50,pIC50
COc1ccc(-n2c(NC(=O)c3ccco3)c(C#N)c3nc4ccccc4nc32)cc1,> 50 µM (inactive),–
O=C(NC1(O)C(=O)c2ccccc2C1=O)c1ccccc1,> 50 µM (inactive),–
N#Cc1c(NC(=O)c2ccc(Br)o2)n(-c2ccccc2)c2nc3ccccc3nc12,> 50 µM (inactive),–
CCCCNC(=O)c1c(N)n(CCCOC)c2nc3ccccc3nc12,> 50 µM (inactive),–
Cc1ccc(-c2csc(NC(=O)c3ccno3)n2)cc1,–,4.30
O=C1Nc2ccccc2SC(c2ccccc2)C1O (stereo unspecified),–,4.45
COc1ccc(Cn2c(C)nc3c(c2=O)c2nc4ccccc4nc2n3Cc2ccco2)cc1,–,4.66
COc1ccc(-c2cc3nc(C4CCN(C(=O)OC(C)(C)C)CC4)c(C(=O)O)cn3n2)cc1,–,4.44
CC(C)Cn1c(N)c(C(=O)COC(=O)c2cc(-c3ccco3)nc3ccccc23)c(=O)n(C)c1=O,–,4.59
CCCSc1nnc(NC(=O)c2sc3nc(-c4cccs4)ccc3c2N)s1,–,4.59
CCOc1ccc2noc3c2c1C(=O)c1ccccc1-3,–,4.52
Cc1c(N=c2c(=O)c3ccccc3c2=O)c(=O)n(-c2ccccc2)n1C,> 50 µM (inactive),–
Nc1nc2c(s1)CCc1c-2cnn1-c1ccccc1,> 50 µM (inactive),–
Cc1cccc(N2CCN(C(=O)Cc3c(C(=O)O)[nH]c4ccc(Cl)cc34)CC2)c1C,–,4.33
CCOC(=O)c1ccc2c(c1)C1C=CCC1C(C(=O)O)N2 (stereo unspecified),–,4.49
COC(=O)c1ccccc1NC(=O)CN1C(=O)C2CCCN2c2ncc(Cl)cc21 (stereo unspecified),> 50 µM (inactive),–
Nc1c(N2CCCC2)cc(Cl)c2nonc12,> 50 µM (inactive),–
CC(C)Sc1nc2sc3c(c2c2nnc(SCC(=O)NCc4ccco4)n12)CCCC3,–,4.64
CCCCCNC(=O)c1ccc2c(=O)[nH]c3c(C(=O)NCC4CCCO4)sc(=S)n3c2c1 (stereo unspecified),–,4.44

SMILES,IC50,pIC50
CCOc1cc(/C=C(/C#N)c2ccc(F)cc2)ccc1OCc1ccc(C(=O)O)o1,–,4.38
COCCCn1c(N)c(C(=O)NCCC(C)C)c2nc3ccccc3nc21,> 50 µM (inactive),–
Cc1nc2c(C(=O)NCCC3=CCCCC3)c[nH]n2c(=O)c1Cl,–,4.30
[O-]/[N+](=C/c1ccc(F)cc1)c1ccccc1,> 50 µM (inactive),–
Cc1ccc(C)n1-c1cccc(C(=O)O)c1,–,4.77
Cc1ccc(/C=C/C2=Cc3c(sc(NC(=O)CSc4n[nH]c(N)n4)c3C#N)C(C)(C)C2)o1,–,4.70
O=C1c2ccccc2-c2onc3ccc(NCCCn4ccnc4)c1c23,–,4.45
COc1ccc2noc3c2c1C(=O)c1ccccc1-3,–,4.84
Cc1nc2cc(-c3cccc(F)c3)nn2c(C)c1CCC(=O)N1CCC2(CC1)OCCO2,> 50 µM (inactive),–
CCOc1ccc(-c2cc3nc(C4CCN(C(=O)OC(C)(C)C)CC4)c(C(=O)O)cn3n2)cc1,–,4.56
O=C(Nc1ccc2nc(-c3ccco3)c(-c3ccco3)nc2c1)N1CCCCCC1,–,4.62
Cn1ncnc2c(=O)n(C)c(=O)nc1-2,> 50 µM (inactive),–
Cc1cc(C)n2c(SCC(=O)N3CCN(S(=O)(=O)c4ccc(Cl)cc4)CC3)nnc2n1,–,4.30
Cc1cccc(NC(=O)c2cc(NC(=O)C3CCCCC3C(=O)O)ccc2N2CCCCC2)c1 (stereo unspecified),> 50 µM (inactive),–
CCc1ccc(NC(=O)CSc2nc3ccccc3c(=O)n2CCN2CCOCC2)cc1,> 50 µM (inactive),–
FC(F)(F)c1ccc(N2CCOCC2)c(Nc2nc3ccccc3n3cnnc23)c1,> 50 µM (inactive),–
O=C(Nc1ccccc1)c1ccc2nc(-c3ccco3)c(-c3ccco3)nc2c1,–,4.49
O=C1C=C(NCc2ccc(Cl)c(Cl)c2)CC1,> 50 µM (inactive),–
N#Cc1c(N2CCCC2)nc(N)c2c(N)nc(N3CCCC3)cc12,> 50 µM (inactive),–

SMILES,IC50,pIC50
CCCCCC#CCC#CCC#CCC#CCCCC(=O)O,–,4.88
CCCCn1c(NC(=O)c2ccccc2)c(C#N)c2nc3ccccc3nc21,–,4.49
CC(=O)[C@@H]1[C@@H]2C(=O)N(c3ccc(F)c(Cl)c3)C(=O)[C@@H]2C2c3ccccc3C=CN21 (stereo partly specified),> 50 µM (inactive),–
N#Cc1c(N)sc(=S)c2c1CCN(Cc1ccccc1)C2,> 50 µM (inactive),–
O=C1C=Cc2ccccc2C1=O,–,4.65
[O-]/[N+](=C\c1ccncc1)c1ccccc1,–,4.33
COc1ccc(Br)cc1/C=c1\sc2nc(-c3ccco3)nn2c1=O,–,4.76
CCn1c(SCC(=O)Nc2ccc3c(c2)c2ccccc2n3CC)nnc1-c1ccco1,–,4.68
CCCCn1c(SCC(=O)c2ccc(OC)cc2OC)nc2cc(S(N)(=O)=O)ccc21,–,4.38
Cc1cc(NC(=O)c2ccc(S(=O)(=O)N3CCCC3)cc2)nc2c1c(=O)oc1ccccc12,–,4.58
CCn1nc(-c2cccs2)nc2c(=O)n(C)c(=O)nc1-2,> 50 µM (inactive),–
[O-]/[N+](=C\c1ccc(OC(F)F)cc1)c1ccccc1,> 50 µM (inactive),–
O=C(c1cccs1)c1no[n+]([O-])c1C(=O)c1cccs1,–,5.16
CC1=C(/C=C/C(C)=C/C=C/C(C)=C/C(=O)O)C(C)(C)CCC1,–,4.31
CCn1nc(-c2ccccc2)nc2c(=O)n(C)c(=O)nc1-2,> 50 µM (inactive),–
COc1cc(/C=C(/C#N)c2ccc(F)cc2)ccc1OCc1ccc(C(=O)O)o1,> 50 µM (inactive),–
O=C(OC1CCCCC1)c1ccc2c(c1)C1C=CCC1C(C(=O)O)N2 (stereo unspecified),–,4.76
CC(C)(C)N1C(=O)Cc2c1nc(N)c1c(N)nc(N3CCCCC3CO)c(C#N)c21 (stereo unspecified),> 50 µM (inactive),–
